Source: patent US20250163104A1, “MACROCYCLIC IMMUNOMODULATORS” (priority 2021, published 2025)
Where a SMILES comes first, the peptide text is derived from it. Bridges are numbered along the chain shown (N, C = ends). [ ]: non-standard residue; d: D form. The star is where a group is joined. ξ: configuration not given here. Phe(4-COOH) = N[C@@H](Cc1ccc(C(=O)O)cc1)C(=O)O; Bip = N[C@@H](Cc1ccc(-c2ccccc2)cc1)C(=O)O; Phe(3-Me) = Cc1cccc(C[C@H](N)C(=O)O)c1; aIle = CC[C@@H](C)[C@H](N)C(=O)O; 4Pal = N[C@@H](Cc1ccncc1)C(=O)O; Cha = N[C@@H](CC1CCCCC1)C(=O)O; Cit = NC(=O)NCCC[C@H](N)C(=O)O; dCha = N[C@H](CC1CCCCC1)C(=O)O; Thr(3ξ) = CC(O)[C@H](N)C(=O)O; Carboxymethyl = O=C(O)C*; Nle = CCCC[C@H](N)C(=O)O; Orn = NCCC[C@H](N)C(=O)O; Dab = NCC[C@H](N)C(=O)O; Dap = NC[C@H](N)C(=O)O

Biological target: T1, human PD-1 / PD-L1-Ig binding on Jurkat cell line over-expressing human PD-1 (Jurkat-PD-1) (Homo sapiens, UniProt Q15116)
T1 construct: expressed in transfected cells; host or cells: Jurkat
T1 sequence (Q15116 25-288): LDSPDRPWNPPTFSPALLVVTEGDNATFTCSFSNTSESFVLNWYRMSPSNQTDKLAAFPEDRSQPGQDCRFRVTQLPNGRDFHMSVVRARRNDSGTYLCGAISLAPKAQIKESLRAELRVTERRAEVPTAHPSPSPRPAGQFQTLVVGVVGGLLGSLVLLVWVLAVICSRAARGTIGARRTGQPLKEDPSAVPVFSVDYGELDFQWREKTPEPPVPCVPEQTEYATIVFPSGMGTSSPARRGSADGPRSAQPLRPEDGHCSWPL
Experiment: Jurkat-PD-1 Cell Binding High-Content Screening Assay (CBA)
Type: cell-based
Conditions: Jurkat-PD-1 cells, PE-labeled PD-L1-Ig 20 nM final; read-out: Jurkat HPD1_PDL1 IC50
How it was run: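 Cell-bound PE-labeled PD-L1-Ig (20 nM final, 1 h) measured by high-content imaging after fixation and Hoechst 33342 counterstain. Compound was applied first for 2 h at 37° C. to Jurkat cells over-expressing human PD-1 in DMEM with 10% FCS.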

| IC50 | Structure (SMILES) |
| --- | --- |
| 17 nM | CC[C@H](C)[C@@H]1NC(=O)[C@H](Cc2ccc(-c3ccccc3)cc2)NC(=O)[C@H](C(C)C)NC(=O)[C@H](Cc2c[nH]c3ccccc23)NC(=O)[C@H](CC(=O)O)NC(=O)[C@H](Cc2ccc(O)cc2)NC(=O)[C@H](Cc2ccc(OCC(=O)O)cc2)NC(=O)CSC[C@@H](C(=O)N[C@@H](C)C(N)=O)NC(=O)[C@H]([C@@H](C)O)NC(=O)[C@H](C(C)C)NC(=O)[C@H](CC2CCCCC2)NC(=O)[C@H](CCN)NC(=O)[C@@H](CC(C)C)NC(=O)[C@H](CCCN)NC1=O [Compound 1167] |
| 35 nM | CC[C@@H](C)[C@@H]1NC(=O)[C@H](Cc2ccc(-c3ccccc3)cc2)NC(=O)[C@H](C(C)C)NC(=O)[C@H](Cc2c[nH]c3ccccc23)NC(=O)[C@H](CC(=O)O)NC(=O)[C@H](Cc2ccc(OCC(=O)O)cc2)NC(=O)[C@H](Cc2ccc(OCC(=O)O)cc2)NC(=O)CSC[C@@H](C(=O)N[C@@H](C)C(N)=O)NC(=O)[C@H]([C@@H](C)O)NC(=O)[C@H](C(C)C)NC(=O)[C@H](CC2CCCCC2)NC(=O)[C@H](CCN)NC(=O)[C@@H](CC2CCCCC2)NC(=O)[C@H](CCCN)NC1=O [Compound 1625] ({CH2CO}-Y(Carboxymethyl)Y(Carboxymethyl)DWV[Bip][aIle][Orn][dCha][Dab][Cha]VTCA-NH2; thioether N-14) |
| 30.4 nM | CC(C)C[C@H]1NC(=O)[C@H](CCCN)NC(=O)[C@H](CCC(=O)O)NC(=O)[C@H](Cc2ccc(-c3ccccc3)cc2)NC(=O)[C@H](C(C)C)NC(=O)[C@H](Cc2ccccc2F)NC(=O)[C@H](CC(=O)O)NC(=O)[C@H](Cc2ccc(C#N)cc2)NC(=O)[C@H](Cc2ccc(OCC(=O)O)cc2)NC(=O)CSC[C@@H](C(=O)N[C@@H](C)C(N)=O)NC(=O)[C@H]([C@@H](C)O)NC(=O)[C@H](C(C)C)NC(=O)[C@H](CC2CCCCC2)NC(=O)[C@H](CCN)NC1=O [Compound 2215] |
| 12.6 nM | CC(C)C[C@H]1NC(=O)[C@H](CCCN)NC(=O)[C@H](C(C)C)NC(=O)[C@H](Cc2ccc(-c3ccccc3)cc2)NC(=O)[C@H](C(C)C)NC(=O)[C@H](Cc2c[nH]c3ccccc23)NC(=O)[C@H](CC(=O)O)NC(=O)[C@H](Cc2ccc(OCC(=O)O)cc2)NC(=O)[C@H](C(C)O)NC(=O)CSC[C@@H](C(=O)N[C@@H](CCN)C(N)=O)NC(=O)[C@H](C(C)O)NC(=O)[C@H](C(C)C)NC(=O)[C@H](CC2CCCCC2)NC(=O)[C@H](CCN)NC1=O (stereo partly drawn) [Compound 2601] ({CH2CO}-[Thr(3ξ)]Y(Carboxymethyl)DWV[Bip]V[Orn][dL][Dab][Cha]V[Thr(3ξ)]C[Dab]-NH2; thioether N-14) |
| 19.7 nM | CC(C)[C@@H]1NC(=O)[C@H](Cc2c[nH]c3ccccc23)NC(=O)[C@H](CC(=O)O)NC(=O)[C@H](Cc2ccc(OCC(=O)O)cc2)NC(=O)[C@H](Cc2ccncc2)NC(=O)CSC[C@@H](C(=O)N[C@@H](C)C(N)=O)NC(=O)[C@H]([C@@H](C)O)NC(=O)[C@H](C(C)C)NC(=O)[C@H](CC2CCCCC2)NC(=O)[C@H](CCN)NC(=O)[C@@H](CC2CCCCC2)NC(=O)[C@H](CCCN)NC(=O)[C@H](C(C)C)NC(=O)[C@H](Cc2ccc(-c3ccccc3)cc2)NC1=O [Compound 1636] ({CH2CO}-[4Pal]Y(Carboxymethyl)DWV[Bip]V[Orn][dCha][Dab][Cha]VTCA-NH2; thioether N-14) |
| 10.8 nM | CCCC[C@@H]1NC(=O)[C@H](Cc2c[nH]c3ccccc23)NC(=O)[C@H](CC(=O)O)NC(=O)[C@H](Cc2ccc(OCC(=O)O)cc2)NC(=O)[C@H](CN)NC(=O)CSC[C@@H](C(=O)N[C@@H](C)C(N)=O)NC(=O)[C@H]([C@@H](C)O)NC(=O)[C@H](C(C)C)NC(=O)[C@H](CC2CCCCC2)NC(=O)[C@H](CCN)NC(=O)[C@@H](CC(C)C)NC(=O)[C@H](CCCN)NC(=O)[C@H](C(C)C)NC(=O)[C@H](Cc2ccc(-c3ccccc3)cc2)NC1=O [Compound 1734] ({CH2CO}-[Dap]Y(Carboxymethyl)DW[Nle][Bip]V[Orn][dL][Dab][Cha]VTCA-NH2; thioether N-14) |
| 66 nM | CC(C)C[C@H]1NC(=O)[C@H](CCCN)NC(=O)[C@H](C(C)C)NC(=O)[C@H](Cc2ccc(-c3ccccc3)cc2)NC(=O)[C@H](C(C)C)NC(=O)[C@H](Cc2c[nH]c3ccccc23)NC(=O)[C@H](CC(=O)O)NC(=O)[C@H](Cc2ccc(C(=O)O)cc2)NC(=O)[C@H](Cc2ccc(OCC(=O)O)cc2)NC(=O)CSC[C@@H](C(=O)N[C@@H](C)C(N)=O)NC(=O)[C@H]([C@@H](C)O)NC(=O)[C@H](C(C)C)NC(=O)[C@H](Cc2ccc(O)cc2)NC(=O)[C@H](CCN)NC1=O [Compound 1682] ({CH2CO}-Y(Carboxymethyl)[Phe(4-COOH)]DWV[Bip]V[Orn][dL][Dab]YVTCA-NH2; thioether N-14) |

More lines, now with the values behind:

| Structure (SMILES) | IC50 |
| --- | --- |
| CC(C)C[C@@H]1NC(=O)[C@H](CCN)NC(=O)[C@@H](CC(C)C)NC(=O)[C@H](CCCN)NC(=O)[C@H](CCCNC(=N)N)NC(=O)[C@H](Cc2ccc(-c3ccccc3)cc2)NC(=O)[C@H](C(C)C)NC(=O)[C@H](Cc2c[nH]c3ccccc23)NC(=O)[C@H](CC(=O)O)NC(=O)[C@H](Cc2ccc(OCC(=O)O)cc2)NC(=O)[C@H](Cc2ccncc2)NC(=O)CSC[C@@H](C(=O)N[C@@H](C)C(N)=O)NC(=O)[C@H]([C@@H](C)O)NC(=O)[C@H](C(C)C)NC1=O [Compound 1242] ({CH2CO}-[4Pal]Y(Carboxymethyl)DWV[Bip]R[Orn][dL][Dab]LVTCA-NH2; thioether N-14) | 28.9 nM |
| CC(C)[C@@H]1NC(=O)[C@H](Cc2c[nH]c3ccccc23)NC(=O)[C@H](CC(=O)O)NC(=O)[C@H](Cc2ccc(C(=O)O)cc2)NC(=O)[C@H](Cc2ccncc2)NC(=O)CSC[C@@H](C(=O)NCC(N)=O)NC(=O)[C@H](CO)NC(=O)[C@H](C(C)C)NC(=O)[C@H](CC2CCCCC2)NC(=O)[C@H](CCN)NC(=O)[C@@H](C)NC(=O)[C@H](CCCN)NC(=O)[C@H](CCN)NC(=O)[C@H](Cc2ccc(-c3ccccc3)cc2)NC1=O [Compound 2544] ({CH2CO}-[4Pal][Phe(4-COOH)]DWV[Bip][Dab][Orn][dA][Dab][Cha]VSCG-NH2; thioether N-14) | 80.6 nM |
| Cc1cccc(C[C@@H]2NC(=O)[C@H](CC(=O)O)NC(=O)[C@H](Cc3ccc(O)cc3)NC(=O)[C@H](CC(N)=O)NC(=O)CSC[C@@H](C(=O)N[C@@H](C)C(N)=O)NC(=O)[C@H]([C@@H](C)O)NC(=O)[C@H](C(C)C)NC(=O)[C@H](CC(C)C)NC(=O)[C@H](CCN)NC(=O)[C@@H](CC(C)C)NC(=O)[C@H](CCCN)NC(=O)[C@H](CCCNC(N)=O)NC(=O)[C@H](Cc3ccc(-c4ccccc4)cc3)NC(=O)[C@H](CC(C)C)NC2=O)c1 [Compound 1305] ({CH2CO}-NYD[Phe(3-Me)]L[Bip][Cit][Orn][dL][Dab]LVTCA-NH2; thioether N-14) | 11.7 nM |
| CC(C)C[C@@H]1NC(=O)[C@H](CCCNC(=N)N)NC(=O)[C@@H](CC(C)C)NC(=O)[C@H](C)NC(=O)[C@H](CCCNC(=N)N)NC(=O)[C@H](Cc2ccc(-c3ccccc3)cc2)NC(=O)[C@H](C(C)C)NC(=O)[C@H](Cc2c[nH]c3ccccc23)NC(=O)[C@H](CC(=O)O)NC(=O)[C@H](Cc2ccc(O)cc2)NC(=O)[C@H](CC(N)=O)NC(=O)CSC[C@@H](C(=O)N[C@@H](C)C(N)=O)NC(=O)[C@H]([C@@H](C)O)NC(=O)[C@H](C(C)C)NC1=O [Compound 1006] ({CH2CO}-NYDWV[Bip]RA[dL]RLVTCA-NH2; thioether N-14) | 98.1 nM |
| Cc1cccc(C[C@@H]2NC(=O)[C@H](CC(=O)O)NC(=O)[C@H](Cc3ccc(OCC(=O)O)cc3)NC(=O)[C@H](CN)NC(=O)CSC[C@@H](C(=O)N[C@@H](C)C(N)=O)NC(=O)[C@H]([C@@H](C)O)NC(=O)[C@H](C(C)C)NC(=O)[C@H](CC3CCCCC3)NC(=O)[C@H](CCN)NC(=O)[C@@H](CC(C)C)NC(=O)[C@H](CCCN)NC(=O)[C@H](C(C)C)NC(=O)[C@H](Cc3ccc(-c4ccccc4)cc3)NC(=O)[C@H](C(C)C)NC2=O)c1 [Compound 1212] | 6 nM |
| CC(C)C[C@@H]1NC(=O)[C@H](CCCNC(=N)N)NC(=O)[C@@H](CC(C)C)NC(=O)[C@H](CCCCN)NC(=O)[C@H](CCCNC(=N)N)NC(=O)[C@H](Cc2ccc(-c3ccccc3)cc2)NC(=O)[C@H](C(C)C)NC(=O)[C@H](Cc2c[nH]c3ccccc23)NC(=O)[C@H](CC(=O)O)NC(=O)[C@H](Cc2ccc(O)cc2)NC(=O)[C@H](CC(N)=O)NC(=O)CSC[C@@H](C(=O)N[C@@H](C)C(N)=O)NC(=O)[C@H]([C@@H](C)O)NC(=O)[C@H](C(C)C)NC1=O [Compound 1007] ({CH2CO}-NYDWV[Bip]RK[dL]RLVTCA-NH2; thioether N-14) | 45.3 nM |
| Cc1cccc(C[C@@H]2NC(=O)[C@H](CC(=O)O)NC(=O)[C@H](Cc3ccc(C(=O)O)cc3)NC(=O)[C@H](Cc3ccc(OCC(=O)O)cc3)NC(=O)CSC[C@@H](C(=O)N[C@@H](C)C(N)=O)NC(=O)[C@H]([C@@H](C)O)NC(=O)[C@H](C(C)C)NC(=O)[C@H](CC3CCCCC3)NC(=O)[C@H](CCN)NC(=O)[C@@H](Cc3ccccc3)NC(=O)[C@H](CCCN)NC(=O)[C@H](CCC(=O)O)NC(=O)[C@H](Cc3ccc(-c4ccccc4)cc3)NC(=O)[C@H](C(C)C)NC2=O)c1 [Compound 1437] ({CH2CO}-Y(Carboxymethyl)[Phe(4-COOH)]D[Phe(3-Me)]V[Bip]E[Orn][dF][Dab][Cha]VTCA-NH2; thioether N-14) | 16.6 nM |
| CC[C@@H](C)[C@@H]1NC(=O)[C@H](Cc2ccc(-c3ccccc3)cc2)NC(=O)[C@H](C(C)C)NC(=O)[C@H](Cc2c[nH]c3ccccc23)NC(=O)[C@H](CC(=O)O)NC(=O)[C@H](Cc2ccncc2)NC(=O)[C@H](CN)NC(=O)CSC[C@@H](C(=O)N[C@@H](C)C(N)=O)NC(=O)[C@H]([C@@H](C)O)NC(=O)[C@H](C(C)C)NC(=O)[C@H](CC2CCCCC2)NC(=O)[C@H](CCN)NC(=O)[C@@H](CC2CCCCC2)NC(=O)[C@H](CCCN)NC1=O [Compound 1630] ({CH2CO}-[Dap][4Pal]DWV[Bip][aIle][Orn][dCha][Dab][Cha]VTCA-NH2; thioether N-14) | 48.3 nM |
